According to patent US20210255193A1, “LYSINE REACTIVE PROBES AND USES THEREOF” (The Scripps Research Institute, priority 2017, published 2021):
Each block holds one molecule with its values, some of them ahead of it.

What was measured:
Assay in all cases: competitive isoTOP-ABPP
Assay type in all cases: binding
[1] = biological target: T1, MRPL12 39S ribosomal protein L12, mitochondrial (Homo sapiens, UniProt P52815); conditions: for isoTOP-ABPP ratio, lysine P52815_K87: 50 uM_231_sol_in vitro, possible other lysine B4DLN1_K87, P52815_K91
T1 construct: isoTOP-ABPP experiments performed in cell lysates (in vitro); endogenous in cells; host or cells: soluble proteome of human cancer cell lines (MDA-MB-231, Ramos, Jurkat)
Outline: (§1)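 Lysate + fragment (50 μM activated ester / 100 μM guanidinylating agent) or DMSO → 0.1 mM STP-alkyne, 1 h, RT → CuAAC to TEV tags (compound light, DMSO heavy) → LC-MS. R = heavy/light MS1 area; liganded lysine if R≥4.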

[2] = biological target: T2, LDHB L-lactate dehydrogenase B chain (Homo sapiens, UniProt P07195); conditions: for isoTOP-ABPP ratio, lysine P07195_K82 / isoTOP-ABPP ratio, lysine P07195_K244: 50 uM_231_sol_in vitro
T2 construct: isoTOP-ABPP experiments performed in cell lysates (in vitro); endogenous in cells; host or cells: MDA-MB-231 soluble lysate
T2 sequence (P07195 whole entry): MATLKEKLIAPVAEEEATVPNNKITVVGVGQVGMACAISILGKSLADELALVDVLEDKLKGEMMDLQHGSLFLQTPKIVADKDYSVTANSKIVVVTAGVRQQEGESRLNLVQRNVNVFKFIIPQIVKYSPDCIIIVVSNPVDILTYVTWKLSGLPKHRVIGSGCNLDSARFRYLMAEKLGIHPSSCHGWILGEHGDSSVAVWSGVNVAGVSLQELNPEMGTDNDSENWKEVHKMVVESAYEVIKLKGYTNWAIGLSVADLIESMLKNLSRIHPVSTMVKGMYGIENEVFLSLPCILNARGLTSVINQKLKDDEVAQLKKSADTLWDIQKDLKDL
Outline: as §1

[3] = biological target: T3, LRRC20 Leucine-rich repeat-containing protein 20 (Homo sapiens, UniProt Q8TCA0); conditions: for R value (DMSO/fragment) for probe 1 labeling: Q8TCA0_K43; for R value (DMSO/fragment) for probe 1 labeling / isoTOP-ABPP reactivity ratio at lysine Q8TCA0_K43: 50 uM, 231 sol, in vitro; for isoTOP-ABPP ratio, lysine Q8TCA0_K43: 50 uM_231_sol_in vitro
T3 construct: isoTOP-ABPP experiments performed in cell lysates (in vitro); endogenous in cells; host or cells: soluble proteome of human cancer cell lines (MDA-MB-231; Ramos and Jurkat also prepared)
T3 sequence (Q8TCA0 1-184): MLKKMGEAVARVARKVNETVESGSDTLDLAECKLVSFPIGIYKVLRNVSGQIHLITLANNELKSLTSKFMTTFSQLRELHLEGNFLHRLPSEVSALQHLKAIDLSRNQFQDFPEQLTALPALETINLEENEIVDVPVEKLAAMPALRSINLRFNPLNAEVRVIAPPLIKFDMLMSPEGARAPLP
Outline: as §1

[4] = biological target: T4, GABARAPL2 Gamma-aminobutyric acid receptor-associated protei (Homo sapiens, UniProt P60520); conditions: for R value (DMSO/fragment) for probe 1 labeling: P60520_K46; for R value (DMSO/fragment) for probe 1 labeling / isoTOP-ABPP reactivity ratio at lysine P60520_K46: 50 uM, 231 sol, in vitro; for isoTOP-ABPP ratio, lysine P60520_K46: 50 uM_231_sol_in vitro
T4 construct: isoTOP-ABPP experiments performed in cell lysates (in vitro); endogenous in cells; host or cells: soluble proteome of human cancer cell lines (MDA-MB-231, Ramos, Jurkat)
T4 sequence (P60520 1-116 limits assumed): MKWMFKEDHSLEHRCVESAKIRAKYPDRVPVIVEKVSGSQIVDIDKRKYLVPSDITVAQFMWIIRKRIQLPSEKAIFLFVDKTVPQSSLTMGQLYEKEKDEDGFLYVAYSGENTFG
Outline: as §1

[5] = biological target: T5, FH Fumarate hydratase, mitochondrial (Homo sapiens, UniProt P07954)
T5 construct: isoTOP-ABPP experiments performed in cell lysates (in vitro); endogenous in cells; host or cells: MDA-MB-231 soluble lysate
T5 sequence (P07954 45-510): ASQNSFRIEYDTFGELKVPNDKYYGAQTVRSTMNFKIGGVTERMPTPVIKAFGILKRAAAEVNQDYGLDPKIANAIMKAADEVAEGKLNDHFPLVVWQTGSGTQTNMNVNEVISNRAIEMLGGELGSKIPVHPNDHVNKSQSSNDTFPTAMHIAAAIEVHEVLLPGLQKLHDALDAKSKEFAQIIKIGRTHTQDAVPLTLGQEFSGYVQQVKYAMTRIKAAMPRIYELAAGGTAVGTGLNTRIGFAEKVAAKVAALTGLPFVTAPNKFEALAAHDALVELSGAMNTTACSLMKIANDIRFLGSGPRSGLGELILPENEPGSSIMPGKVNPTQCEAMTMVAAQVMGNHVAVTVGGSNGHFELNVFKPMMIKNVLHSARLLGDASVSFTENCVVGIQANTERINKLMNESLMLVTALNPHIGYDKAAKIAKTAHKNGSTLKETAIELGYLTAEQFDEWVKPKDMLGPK
Outline: as §1

DTYMK Thymidylate kinase = biological target: T6, DTYMK Thymidylate kinase (Homo sapiens, UniProt P23919); conditions: 50 uM, 231 sol, in vitro
T6 construct: isoTOP-ABPP experiments performed in cell lysates (in vitro); endogenous in cells; host or cells: soluble proteome of human cancer cell lines (MDA-MB-231; Ramos and Jurkat also prepared)
T6 sequence (P23919 1-212): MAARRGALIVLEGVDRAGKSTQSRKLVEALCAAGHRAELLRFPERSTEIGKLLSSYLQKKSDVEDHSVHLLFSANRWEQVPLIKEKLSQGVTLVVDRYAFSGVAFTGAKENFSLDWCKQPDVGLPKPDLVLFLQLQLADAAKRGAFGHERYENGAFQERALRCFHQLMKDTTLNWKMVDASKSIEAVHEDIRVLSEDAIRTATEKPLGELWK
Outline: as §1

R value (DMSO/fragment) for probe 1 labeling ([1]; P52815_K87, 50 uM, 231 sol, in vitro): 1.4 | R value (DMSO/fragment) for probe 1 labeling ([2]; P07195_K82, 50 uM, 231 sol, in vitro): 0.8 | R value (DMSO/fragment) for probe 1 labeling ([2]; P07195_K244, 50 uM, 231 sol, in vitro): 1.0 | R value (DMSO/fragment) for probe 1 labeling [3]: 0.9 | R value (DMSO/fragment) for probe 1 labeling [4]: 0.8
SMILES: Cn1cc(CC(=O)Oc2c(F)c(F)c(F)c(F)c2F)c2ccccc21 [fragment 22, Pentafluorophenyl 2-(1-methyl-1H-indol-3-yl)acetate]

R value (DMSO/fragment) for probe 1 labeling ([5]; P07954_K311, 50 uM, 231 sol, in vitro): 2.6
SMILES: COc1cc(CCC(=O)Oc2c(F)c(F)c(F)c(F)c2F)cc(OC)c1OC [fragment 23, Pentafluorophenyl 3-(3,4,5-trimethoxyphenyl)propanoate]

SMILES: O=C(Oc1ccc([N+](=O)[O-])cc1[N+](=O)[O-])c1ccccc1Nc1cccc(C(F)(F)F)c1 [fragment 40, 2,4-Dinitrophenyl 2-((3-(trifluoromethyl)phenyl)amino)benzoate]
isoTOP-ABPP ratio (R) at liganded lysine P07195_K82 ([2]; 50 uM, in vitro, sol, 231): 20.0

SMILES: O=C(ON1C(=O)CCC1=O)c1cc(C(F)(F)F)cc(C(F)(F)F)c1 [fragment 46, 3,5-Bis(trifluoromethyl)benzoic acid NHS ester]
isoTOP-ABPP ratio, lysine P52815_K87 [1]: 0.6 | isoTOP-ABPP ratio, lysine P07195_K82 [2]: 0.7 | isoTOP-ABPP ratio, lysine P07195_K244 [2]: 0.8 | isoTOP-ABPP ratio, lysine Q8TCA0_K43 [3]: 1.3

isoTOP-ABPP reactivity ratio at lysine P23919_K118 (DTYMK Thymidylate kinase): 1.1 | isoTOP-ABPP reactivity ratio at lysine P60520_K46 [4]: 1.2
SMILES: O=C(Oc1c(F)c(F)c(F)c(F)c1F)c1ccc2ccccc2n1 [fragment 25, Pentafluorophenyl quinoline-2-carboxylate]

SMILES: O=C(Oc1ccc([N+](=O)[O-])cc1[N+](=O)[O-])c1cc(C(F)(F)F)cc(C(F)(F)F)c1 [fragment 31, 2,4-Dinitrophenyl 3,5-bis(trifluoromethyl)benzoate]
isoTOP-ABPP reactivity ratio at lysine P07954_K311 ([5]; 50 uM, 231 sol, in vitro): 1.4 | isoTOP-ABPP reactivity ratio at lysine P60520_K46 [4]: 1.2

SMILES: Cn1cc(CC(=O)Oc2ccc([N+](=O)[O-])cc2[N+](=O)[O-])c2ccccc21 [fragment 32, 2,4-Dinitrophenyl 2-(1-methyl-1H-indol-3-yl)acetate]
isoTOP-ABPP reactivity ratio at lysine P07195_K82 ([2]; 50 uM, 231 sol, in vitro): 0.8 | isoTOP-ABPP reactivity ratio at lysine P07195_K244 ([2]; 50 uM, 231 sol, in vitro): 1.0 | isoTOP-ABPP reactivity ratio at lysine Q8TCA0_K43 [3]: 1.6 | isoTOP-ABPP reactivity ratio at lysine P60520_K46 [4]: 1.1

isoTOP-ABPP reactivity ratio at lysine P23919_K118 (DTYMK Thymidylate kinase): 1.1
SMILES: O=C(Oc1c(F)c(F)c(F)c(F)c1F)C1CCN(C(=O)OCc2ccccc2)CC1 [fragment 24, 1-Benzyl 4-(pentafluorophenyl) piperidine-1,4-dicarboxylate]

isoTOP-ABPP ratio, lysine P52815_K87 [1]: 0.9 | isoTOP-ABPP ratio, lysine P07954_K311 ([5]; 50 uM_231_sol_in vitro): 1.0 | isoTOP-ABPP ratio, lysine P60520_K46 [4]: 1.0
SMILES: NC(=O)c1cc(C(F)(F)F)cc(C(F)(F)F)c1 [fragment 51, reference compound]

SMILES: N#Cc1ccc(C(=O)Oc2ccc([N+](=O)[O-])cc2[N+](=O)[O-])cc1 [fragment 44, 2,4-Dinitrophenyl 4-cyanobenzoate]
isoTOP-ABPP ratio, lysine P52815_K87 [1]: 1.1 | isoTOP-ABPP ratio, lysine P07195_K82 [2]: 1.0 | isoTOP-ABPP ratio, lysine P07195_K244 [2]: 1.1 | isoTOP-ABPP ratio, lysine Q8TCA0_K43 [3]: 1.1 | isoTOP-ABPP ratio, lysine P60520_K46 [4]: 0.9

isoTOP-ABPP reactivity ratio at lysine P07954_K311 ([5]; 50 uM, 231 sol, in vitro): 2.4 | isoTOP-ABPP reactivity ratio at lysine P07195_K82 ([2]; 50 uM, 231 sol, in vitro): 0.7 | isoTOP-ABPP reactivity ratio at lysine Q8TCA0_K43 [3]: 0.8
SMILES: O=C(CCc1coc2cc(F)ccc2c1=O)Oc1c(F)c(F)c(F)c(F)c1F [fragment 26, Pentafluorophenyl 3-(7-fluoro-4-oxo-4H-chromen-3-yl)propanoate]

SMILES: O=C(Oc1ccc([N+](=O)[O-])cc1[N+](=O)[O-])C1CCN(C(=O)OCc2ccccc2)CC1 [fragment 34, 1-Benzyl 4-(2,4-dinitrophenyl) piperidine-1,4-dicarboxylate]
isoTOP-ABPP ratio (R) at liganded lysine P07195_K244 ([2]; 50 uM, in vitro, sol, 231): 1.0

isoTOP-ABPP reactivity ratio at lysine P52815_K87 ([1]; 50 uM, 231 sol, in vitro): 0.8 | isoTOP-ABPP reactivity ratio at lysine P23919_K118 (DTYMK Thymidylate kinase): 0.9
SMILES: CCn1cc(C(=O)Oc2c(F)c(F)c(F)c(F)c2F)c(=O)c2ccc(C)nc21 [fragment 28, Pentafluorophenyl 1-ethyl-7-methyl-4-oxo-1,4-dihydro-1,8-naphthyridine-3-carboxylate]

R value (DMSO/fragment) for probe 1 labeling [3]: 1.1 | R value (DMSO/fragment) for probe 1 labeling [4]: 1.2
SMILES: O=C(CCc1cn(-c2ccccc2)nc1-c1ccccc1)Oc1c(F)c(F)c(F)c(F)c1F [fragment 19, Pentafluorophenyl 3-(1,3-diphenyl-1H-pyrazol-4-yl)propanoate]
